Test results published in patent US10597388B2, “Pyridazinone herbicides” (FMC CORPORATION, priority 2014, dated 2020).

Experiments:
Type in all cases: in vivo
[1] = system: galium (catchweed bedstraw, Galium aparine); assay: Test A greenhouse herbicide test, postemergence; details: for Galium plant response rating: 0 to 100 scale, 0 is no effect, 100 is complete control
Procedure, shortened: (§1)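 Plants grown in loam soil/sand blend pots were treated postemergence at 2 to 10 cm height, one- to two-leaf stage, with formulated test chemicals. After approximately 10 d in a greenhouse, injury was rated visually against untreated controls on a 0 to 100 scale (0 no effect, 100 complete control).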

[2] = system: blackgrass (Alopecurus myosuroides); assay: Test A greenhouse herbicide test, postemergence; details: for Blackgrass plant response rating: 0 to 100 scale, 0 is no effect, 100 is complete control
Procedure, shortened: as §1

corn (Zea mays) = assay: Test A greenhouse herbicide test, pre- and postemergence; details: Postemergence; for Corn plant response rating: 0 to 100 scale, 0 is no effect, 100 is complete control
Procedure, shortened: (§2)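 Seeds sown in loam–sand blend got a preemergence directed soil spray of compound in non-phytotoxic solvent with surfactant. Postemergence treatment was given at 2–10 cm, one- to two-leaf stage. After ~10 d in greenhouse, injury was rated visually vs untreated controls, 0 (no effect) to 100 (complete control).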

[3] = system: pigweed (Amaranthus retroflexus); assay: as above
Procedure, shortened: as §2

[4] = system: wheat (Triticum aestivum); assay: as above; details: Postemergence; for Wheat plant response rating: 0 to 100 scale, 0 is no effect, 100 is complete control
Procedure, shortened: as §2

[5] = system: ragweed (common ragweed, Ambrosia elatior); assay: as above
Procedure, shortened: as §2

kochia (Kochia scoparia) = assay: as above
Procedure, shortened: as §2

[6] = system: barnyardgrass (Echinochloa crus-galli); assay: as above
Procedure, shortened: as §2

[7] = system: ryegrass, Italian (Italian ryegrass, Lolium multiflorum); assay: as above
Procedure, shortened: as §2

[8] = system: foxtail, giant (giant foxtail, Setaria faberii); assay: as above
Procedure, shortened: as §2

[9] = system: barnyardgrass (Echinochloa crus-galli); assay: Test C greenhouse herbicide test, pre- and postemergence
Procedure, shortened: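 Two application timings: at sowing into a soil/sand blend, and on 2–18 cm seedlings in peat-vermiculite potting mix. A non-phytotoxic, surfactant-containing solvent carried the compounds. Plants were compared with controls and rated visually on 0–100 after 13–15 d.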

[10] = 125 g ai/ha, 0 to 100 scale where 0 is no effect and 100 is complete control
[11] = Postemergence, 125 g ai/ha, 0 to 100 scale where 0 is no effect and 100 is complete control
[12] = Postemergence, 500 g ai/ha, 0 to 100 scale, 0 is no effect, 100 is complete control
[13] = Preemergence, 125 g ai/ha, 0 to 100 scale where 0 is no effect and 100 is complete control
[14] = Preemergence, 500 g ai/ha, 0 to 100 scale, 0 no effect, 100 complete control
[15] = Postemergence, 31 g ai/ha, 0 to 100 scale (0 no effect, 100 complete control)
[16] = Postemergence, 125 g ai/ha, scale 0 to 100, 0 is no effect, 100 is complete control
[17] = Postemergence, 250 g ai/ha, scale 0 to 100, 0 no effect, 100 complete control, 13 to 15 d
[18] = postemergence, 62 g ai/ha, scale 0 to 100, 0 no effect, 100 complete control
[19] = 500 g ai/ha, visual rating after approx. 10 d, 0 to 100 scale (0 no effect, 100 complete control)
[20] = Postemergence, 500 g ai/ha, visual rating after approx. 10 d, 0 to 100 scale (0 no effect, 100 complete control)
[21] = Preemergence, 500 g ai/ha, 0 to 100 scale where 0 is no effect and 100 is complete control
[22] = Preemergence, 31 g ai/ha, scale 0 to 100, 0 is no effect, 100 is complete control
[23] = Preemergence, 62 g ai/ha, scale 0 to 100, 0 is no effect, 100 is complete control
[24] = Preemergence, 125 g ai/ha, scale 0 to 100, 0 is no effect, 100 is complete control
[25] = Preemergence, 250 g ai/ha, scale 0 to 100 (0 no effect, 100 complete control)

## Cc1ccc2ccccc2c1-c1c(O)cnn(C)c1=O [Compound 56]
[1]; [10]
  Plant response rating, Galium: 90
[1]; 500 g ai/ha
  Galium plant response rating: 100
[2]; [10]
  Plant response rating, Blackgrass: 30
[2]; 500 g ai/ha
  Blackgrass plant response rating: 50
Corn (Zea mays); [10]
  Plant response rating, Corn: 0
Corn (Zea mays); 500 g ai/ha
  Corn plant response rating: 10
[3]; [11]
  Plant response rating, Pigweed: 80
[3]; [12]
  Pigweed plant response rating: 90
[3]; [13]
  Pigweed plant response rating: 60
[3]; [14]
  Plant response rating, Pigweed: 100
[4]; [10]
  Plant response rating, Wheat: 10
[4]; 500 g ai/ha
  Wheat plant response rating: 50
[5]; [11]
  Plant response rating, Ragweed: 70
[5]; [12]
  Ragweed plant response rating: 90
[5]; [13]
  Ragweed plant response rating: 80
[5]; [14]
  Plant response rating, Ragweed: 90
Kochia (Kochia scoparia); [11]
  Plant response rating, Kochia: 90
Kochia (Kochia scoparia); [12]
  Kochia plant response rating: 100
Kochia (Kochia scoparia); [13]
  Kochia plant response rating: 40
Kochia (Kochia scoparia); [14]
  Plant response rating, Kochia: 90
[6]; [11]
  Plant response rating, Barnyardgrass: 10
[6]; [12]
  Barnyardgrass plant response rating: 60
[6]; [13]
  Barnyardgrass plant response rating: 10
[6]; [14]
  Plant response rating, Barnyardgrass: 50
[7]; [11]
  Plant response rating, Ryegrass, Italian: 90
[7]; [12]
  Ryegrass, Italian plant response rating: 100
[7]; [13]
  Ryegrass, Italian plant response rating: 100
[7]; [14]
  Plant response rating, Ryegrass, Italian: 100
[8]; [11]
  Plant response rating, Foxtail, Giant: 20
[8]; [12]
  Foxtail, Giant plant response rating: 60
[8]; [13]
  Foxtail, Giant plant response rating: 30
[8]; [14]
  Plant response rating, Foxtail, Giant: 70
[9]; [15]
  Barnyardgrass plant response rating: 0
[9]; [16]
  Plant response rating, Barnyardgrass: 5
[9]; [17]
  Plant response rating, Barnyardgrass: 10
[9]; [18]
  Barnyardgrass plant response rating: 5

## CCC(=O)Oc1c(Cl)nn(C)c(=O)c1-c1c(C)sc2ccc(Cl)cc12 [Compound 111]
[1]; [10]
  Plant response rating, Galium: 90
[1]; [19]
  Plant response rating, Galium: 100
[2]; [10]
  Plant response rating, Blackgrass: 30
[2]; [19]
  Plant response rating, Blackgrass: 70
Corn (Zea mays); [10]
  Plant response rating, Corn: 0
Corn (Zea mays); [19]
  Plant response rating, Corn: 20
[3]; [11]
  Plant response rating, Pigweed: 100
[3]; [20]
  Plant response rating, Pigweed: 100
[3]; [13]
  Pigweed plant response rating: 90
[3]; [21]
  Plant response rating, Pigweed: 100
[4]; [10]
  Plant response rating, Wheat: 20
[4]; [19]
  Plant response rating, Wheat: 30
[5]; [11]
  Plant response rating, Ragweed: 70
[5]; [20]
  Plant response rating, Ragweed: 100
[5]; [13]
  Ragweed plant response rating: 80
[5]; [21]
  Plant response rating, Ragweed: 90
Kochia (Kochia scoparia); [11]
  Plant response rating, Kochia: 40
Kochia (Kochia scoparia); [20]
  Plant response rating, Kochia: 90
Kochia (Kochia scoparia); [13]
  Kochia plant response rating: 60
Kochia (Kochia scoparia); [21]
  Plant response rating, Kochia: 100
[6]; [11]
  Plant response rating, Barnyardgrass: 40
[6]; [20]
  Plant response rating, Barnyardgrass: 90
[6]; [13]
  Barnyardgrass plant response rating: 70
[6]; [21]
  Plant response rating, Barnyardgrass: 100
[7]; [11]
  Plant response rating, Ryegrass, Italian: 90
[7]; [20]
  Plant response rating, Ryegrass, Italian: 100
[7]; [13]
  Ryegrass, Italian plant response rating: 90
[7]; [21]
  Plant response rating, Ryegrass, Italian: 100
[8]; [11]
  Plant response rating, Foxtail, Giant: 70
[8]; [20]
  Plant response rating, Foxtail, Giant: 100
[8]; [13]
  Foxtail, Giant plant response rating: 80
[8]; [21]
  Plant response rating, Foxtail, Giant: 100
[9]; Postemergence, 31 g ai/ha, scale 0 to 100 (0 no effect, 100 complete control)
  Plant response rating, Barnyardgrass: 10
[9]; [16]
  Plant response rating, Barnyardgrass: 45
[9]; [17]
  Plant response rating, Barnyardgrass: 40
[9]; [22]
  Plant response rating, Barnyardgrass: 10
[9]; [23]
  Plant response rating, Barnyardgrass: 20
[9]; [24]
  Plant response rating, Barnyardgrass: 55
[9]; [25]
  Barnyardgrass plant response rating: 85
[9]; [18]
  Barnyardgrass plant response rating: 30

## COc1nn(C)c(=O)c(-c2c(C)ccc3ccccc23)c1O [Compound 54]
[1]; [10]
  Plant response rating, Galium: 100
[1]; 500 g ai/ha
  Galium plant response rating: 100
[2]; [10]
  Plant response rating, Blackgrass: 20
[2]; 500 g ai/ha
  Blackgrass plant response rating: 40
Corn (Zea mays); [10]
  Plant response rating, Corn: 20
Corn (Zea mays); 500 g ai/ha
  Corn plant response rating: 30
[3]; [11]
  Plant response rating, Pigweed: 90
[3]; [12]
  Pigweed plant response rating: 100
[3]; [13]
  Pigweed plant response rating: 100
[3]; [14]
  Plant response rating, Pigweed: 100
[4]; [10]
  Plant response rating, Wheat: 20
[4]; 500 g ai/ha
  Wheat plant response rating: 20
[5]; [11]
  Plant response rating, Ragweed: 100
[5]; [12]
  Ragweed plant response rating: 100
[5]; [13]
  Ragweed plant response rating: 90
[5]; [14]
  Plant response rating, Ragweed: 100
Kochia (Kochia scoparia); [11]
  Plant response rating, Kochia: 100
Kochia (Kochia scoparia); [12]
  Kochia plant response rating: 100
Kochia (Kochia scoparia); [13]
  Kochia plant response rating: 50
Kochia (Kochia scoparia); [14]
  Plant response rating, Kochia: 100
[6]; [11]
  Plant response rating, Barnyardgrass: 30
[6]; [12]
  Barnyardgrass plant response rating: 90
[6]; [13]
  Barnyardgrass plant response rating: 40
[6]; [14]
  Plant response rating, Barnyardgrass: 90
[7]; [11]
  Plant response rating, Ryegrass, Italian: 60
[7]; [12]
  Ryegrass, Italian plant response rating: 100
[7]; [13]
  Ryegrass, Italian plant response rating: 30
[7]; [14]
  Plant response rating, Ryegrass, Italian: 100
[8]; [11]
  Plant response rating, Foxtail, Giant: 60
[8]; [12]
  Foxtail, Giant plant response rating: 90
[8]; [13]
  Foxtail, Giant plant response rating: 60
[8]; [14]
  Plant response rating, Foxtail, Giant: 100
[9]; [15]
  Barnyardgrass plant response rating: 15
[9]; [16]
  Plant response rating, Barnyardgrass: 55
[9]; [17]
  Plant response rating, Barnyardgrass: 20
[9]; [22]
  Plant response rating, Barnyardgrass: 15
[9]; [23]
  Plant response rating, Barnyardgrass: 35
[9]; [24]
  Plant response rating, Barnyardgrass: 65
[9]; [25]
  Barnyardgrass plant response rating: 85
[9]; [18]
  Barnyardgrass plant response rating: 30

## Cc1ccc(-c2c(O)c(Br)nn(C)c2=O)c2ccccc12 [Compound 52]
[1]; [10]
  Plant response rating, Galium: 100
[1]; 500 g ai/ha
  Galium plant response rating: 100
[2]; [10]
  Plant response rating, Blackgrass: 20
[2]; 500 g ai/ha
  Blackgrass plant response rating: 30
Corn (Zea mays); [10]
  Plant response rating, Corn: 0
Corn (Zea mays); 500 g ai/ha
  Corn plant response rating: 20
[3]; [11]
  Plant response rating, Pigweed: 10
[3]; [12]
  Pigweed plant response rating: 30
[3]; [13]
  Pigweed plant response rating: 10
[3]; [14]
  Plant response rating, Pigweed: 60
[4]; [10]
  Plant response rating, Wheat: 0
[4]; 500 g ai/ha
  Wheat plant response rating: 0
[5]; [11]
  Plant response rating, Ragweed: 90
[5]; [12]
  Ragweed plant response rating: 100
[5]; [13]
  Ragweed plant response rating: 20
[5]; [14]
  Plant response rating, Ragweed: 80
Kochia (Kochia scoparia); [11]
  Plant response rating, Kochia: 40
Kochia (Kochia scoparia); [12]
  Kochia plant response rating: 100
Kochia (Kochia scoparia); [13]
  Kochia plant response rating: 0
Kochia (Kochia scoparia); [14]
  Plant response rating, Kochia: 80
[6]; [11]
  Plant response rating, Barnyardgrass: 10
[6]; [12]
  Barnyardgrass plant response rating: 50
[6]; [13]
  Barnyardgrass plant response rating: 50
[6]; [14]
  Plant response rating, Barnyardgrass: 70
[7]; [11]
  Plant response rating, Ryegrass, Italian: 70
[7]; [12]
  Ryegrass, Italian plant response rating: 80
[7]; [13]
  Ryegrass, Italian plant response rating: 80
[7]; [14]
  Plant response rating, Ryegrass, Italian: 80
[8]; [11]
  Plant response rating, Foxtail, Giant: 40
[8]; [12]
  Foxtail, Giant plant response rating: 50
[8]; [13]
  Foxtail, Giant plant response rating: 40
[8]; [14]
  Plant response rating, Foxtail, Giant: 60
[9]; [15]
  Barnyardgrass plant response rating: 5
[9]; [16]
  Plant response rating, Barnyardgrass: 5
[9]; [17]
  Plant response rating, Barnyardgrass: 10
[9]; [18]
  Barnyardgrass plant response rating: 5
